Reference: ChEMBL document CHEMBL5058646 (2022)

Key:
[1] = biological target: T1, Zinc finger and BTB domain-containing protein 44 (Homo sapiens) (UniProt Q8NCP5); conditions: OCI-Ly1, Compound concentration 1.0 uM
T1 sequence (whole entry): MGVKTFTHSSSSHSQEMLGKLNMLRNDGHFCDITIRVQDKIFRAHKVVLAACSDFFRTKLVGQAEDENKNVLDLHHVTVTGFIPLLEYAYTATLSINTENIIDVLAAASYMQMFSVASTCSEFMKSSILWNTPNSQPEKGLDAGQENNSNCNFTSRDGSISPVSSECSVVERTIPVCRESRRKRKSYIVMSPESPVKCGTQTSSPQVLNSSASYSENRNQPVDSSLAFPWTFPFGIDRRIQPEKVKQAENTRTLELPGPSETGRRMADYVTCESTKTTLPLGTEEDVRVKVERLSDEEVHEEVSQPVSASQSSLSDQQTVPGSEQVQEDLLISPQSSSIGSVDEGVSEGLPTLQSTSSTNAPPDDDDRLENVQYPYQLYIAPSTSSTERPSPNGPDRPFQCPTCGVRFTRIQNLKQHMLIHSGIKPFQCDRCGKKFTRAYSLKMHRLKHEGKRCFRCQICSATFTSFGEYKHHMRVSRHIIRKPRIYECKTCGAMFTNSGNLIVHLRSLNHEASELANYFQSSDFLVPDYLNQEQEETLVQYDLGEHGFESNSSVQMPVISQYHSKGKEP

[2] = biological target: Serine/threonine-protein kinase B-raf (Homo sapiens) (UniProt P15056); assay: BRAF SGC Tm panel (DSF); conditions: Compound concentration 20.0 uM
Sequence of Serine/threonine-protein kinase B-raf (Homo sapiens) (P15056 whole entry): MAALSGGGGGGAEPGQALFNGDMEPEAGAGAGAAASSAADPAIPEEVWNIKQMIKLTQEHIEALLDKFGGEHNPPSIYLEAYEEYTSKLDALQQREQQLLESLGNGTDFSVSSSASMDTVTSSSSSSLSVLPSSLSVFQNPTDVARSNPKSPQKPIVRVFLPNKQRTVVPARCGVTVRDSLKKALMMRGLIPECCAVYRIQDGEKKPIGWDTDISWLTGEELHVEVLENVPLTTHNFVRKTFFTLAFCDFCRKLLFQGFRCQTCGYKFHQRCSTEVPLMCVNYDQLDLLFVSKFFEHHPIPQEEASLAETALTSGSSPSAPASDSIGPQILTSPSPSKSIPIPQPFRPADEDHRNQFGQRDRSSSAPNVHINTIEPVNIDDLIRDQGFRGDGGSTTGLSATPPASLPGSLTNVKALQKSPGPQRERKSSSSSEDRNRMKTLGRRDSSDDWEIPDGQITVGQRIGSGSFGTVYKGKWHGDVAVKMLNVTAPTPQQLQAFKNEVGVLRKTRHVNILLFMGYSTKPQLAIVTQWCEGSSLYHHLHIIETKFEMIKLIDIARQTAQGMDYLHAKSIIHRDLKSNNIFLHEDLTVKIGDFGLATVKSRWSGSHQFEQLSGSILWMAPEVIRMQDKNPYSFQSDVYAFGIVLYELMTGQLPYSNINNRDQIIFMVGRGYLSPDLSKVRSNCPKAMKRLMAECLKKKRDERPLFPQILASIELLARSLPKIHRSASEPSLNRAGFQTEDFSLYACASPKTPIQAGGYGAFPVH

[3] = biological target: Muscarinic acetylcholine receptor M2 (Homo sapiens) (UniProt P08172); conditions: Compound concentration 10.0 uM
Sequence of Muscarinic acetylcholine receptor M2 (Homo sapiens) (P08172 whole entry): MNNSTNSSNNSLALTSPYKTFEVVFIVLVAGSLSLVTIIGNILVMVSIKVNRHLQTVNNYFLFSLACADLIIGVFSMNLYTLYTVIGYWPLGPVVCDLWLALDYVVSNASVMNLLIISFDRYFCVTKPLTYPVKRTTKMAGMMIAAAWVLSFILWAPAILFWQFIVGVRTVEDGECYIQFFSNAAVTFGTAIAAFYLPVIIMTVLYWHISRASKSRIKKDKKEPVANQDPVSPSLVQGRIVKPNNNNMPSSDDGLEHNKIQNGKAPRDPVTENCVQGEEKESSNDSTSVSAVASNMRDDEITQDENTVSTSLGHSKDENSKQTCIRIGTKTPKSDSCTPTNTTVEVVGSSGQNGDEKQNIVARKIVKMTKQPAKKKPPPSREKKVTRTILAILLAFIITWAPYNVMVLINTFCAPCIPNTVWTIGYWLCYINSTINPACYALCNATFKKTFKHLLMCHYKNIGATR

[4] = biological target: 5-hydroxytryptamine receptor 1B (Homo sapiens) (UniProt P28222); conditions: Compound concentration 10.0 uM
Sequence of 5-hydroxytryptamine receptor 1B (Homo sapiens) (P28222 whole entry, the tested form may be a part): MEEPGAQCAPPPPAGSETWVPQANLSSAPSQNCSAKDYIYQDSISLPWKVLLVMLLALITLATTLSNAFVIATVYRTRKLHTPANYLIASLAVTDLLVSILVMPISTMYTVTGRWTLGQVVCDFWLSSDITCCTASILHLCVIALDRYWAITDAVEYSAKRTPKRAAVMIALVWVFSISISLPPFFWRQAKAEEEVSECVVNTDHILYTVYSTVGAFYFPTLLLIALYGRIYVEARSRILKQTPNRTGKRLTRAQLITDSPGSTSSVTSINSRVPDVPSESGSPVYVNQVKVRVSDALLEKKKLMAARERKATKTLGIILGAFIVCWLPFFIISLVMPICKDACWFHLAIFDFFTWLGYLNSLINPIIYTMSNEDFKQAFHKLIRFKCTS

[5] = biological target: Zinc finger and BTB domain-containing protein 17 (Homo sapiens) (UniProt Q13105); conditions: SUD4, Compound concentration 1.0 uM
Sequence of Zinc finger and BTB domain-containing protein 17 (Homo sapiens) (Q13105 whole entry, the tested form may be a part): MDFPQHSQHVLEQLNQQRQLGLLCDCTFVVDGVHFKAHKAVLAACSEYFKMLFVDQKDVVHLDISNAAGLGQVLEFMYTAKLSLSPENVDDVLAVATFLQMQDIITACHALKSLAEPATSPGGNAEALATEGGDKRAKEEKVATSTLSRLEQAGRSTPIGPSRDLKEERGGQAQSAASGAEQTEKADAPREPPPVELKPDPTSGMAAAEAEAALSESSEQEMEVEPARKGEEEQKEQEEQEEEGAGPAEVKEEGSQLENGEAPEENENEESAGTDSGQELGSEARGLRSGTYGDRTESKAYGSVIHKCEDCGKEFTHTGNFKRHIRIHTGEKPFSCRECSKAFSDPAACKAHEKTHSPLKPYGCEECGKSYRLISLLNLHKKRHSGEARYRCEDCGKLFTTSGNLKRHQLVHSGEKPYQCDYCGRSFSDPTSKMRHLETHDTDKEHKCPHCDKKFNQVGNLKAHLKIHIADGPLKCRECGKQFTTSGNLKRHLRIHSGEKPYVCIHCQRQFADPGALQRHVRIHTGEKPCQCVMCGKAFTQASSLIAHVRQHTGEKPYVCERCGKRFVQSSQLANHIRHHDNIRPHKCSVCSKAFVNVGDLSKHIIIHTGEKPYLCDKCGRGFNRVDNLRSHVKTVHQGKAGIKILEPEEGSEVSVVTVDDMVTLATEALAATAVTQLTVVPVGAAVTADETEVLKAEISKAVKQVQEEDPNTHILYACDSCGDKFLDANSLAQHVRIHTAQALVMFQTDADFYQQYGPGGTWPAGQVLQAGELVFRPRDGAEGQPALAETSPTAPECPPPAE

[6] = biological target: Protein archease (Homo sapiens) (UniProt Q8IWT0); conditions: SUD4, Compound concentration 1.0 uM
Sequence of Protein archease (Homo sapiens) (Q8IWT0 whole entry): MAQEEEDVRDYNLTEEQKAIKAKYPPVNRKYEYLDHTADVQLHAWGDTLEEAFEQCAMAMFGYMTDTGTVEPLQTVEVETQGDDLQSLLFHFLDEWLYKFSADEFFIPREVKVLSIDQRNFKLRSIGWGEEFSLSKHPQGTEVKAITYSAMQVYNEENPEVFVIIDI

[7] = biological target: Alpha-2A adrenergic receptor (Homo sapiens) (UniProt P08913); conditions: Compound concentration 10.0 uM
Sequence of Alpha-2A adrenergic receptor (Homo sapiens) (P08913 whole entry): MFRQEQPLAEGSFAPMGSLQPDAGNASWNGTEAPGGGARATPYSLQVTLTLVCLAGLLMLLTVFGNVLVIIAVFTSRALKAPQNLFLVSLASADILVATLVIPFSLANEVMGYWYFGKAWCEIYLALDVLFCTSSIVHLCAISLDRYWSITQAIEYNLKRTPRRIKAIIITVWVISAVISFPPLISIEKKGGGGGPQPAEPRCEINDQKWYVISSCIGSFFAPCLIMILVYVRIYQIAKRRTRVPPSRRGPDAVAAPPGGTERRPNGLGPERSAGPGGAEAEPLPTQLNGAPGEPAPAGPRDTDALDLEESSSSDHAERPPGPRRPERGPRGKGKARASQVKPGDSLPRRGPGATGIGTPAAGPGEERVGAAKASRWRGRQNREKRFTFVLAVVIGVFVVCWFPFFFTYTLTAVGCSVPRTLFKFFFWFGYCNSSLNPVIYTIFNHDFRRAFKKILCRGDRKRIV

[8] = biological target: Death-associated protein kinase 3 (Homo sapiens) (UniProt O43293); assay: DAPK3 SGC Tm panel (DSF); conditions: Compound concentration 20.0 uM
[9] = biological target: Ribosomal protein S6 kinase alpha-1 (Homo sapiens) (UniProt Q15418); assay: RPS6KA1 SGC Tm panel (DSF); conditions: Compound concentration 20.0 uM
[10] = biological target: STE20/SPS1-related proline-alanine-rich protein kinase (Homo sapiens) (UniProt Q9UEW8); assay: STK39 SGC Tm panel (DSF); conditions: Compound concentration 20.0 uM
[11] = biological target: Mitogen-activated protein kinase 1 (Homo sapiens) (UniProt P28482); assay: MAPK1 SGC Tm panel (DSF); conditions: Compound concentration 20.0 uM
Sequence of Mitogen-activated protein kinase 1 (Homo sapiens) (P28482 whole entry): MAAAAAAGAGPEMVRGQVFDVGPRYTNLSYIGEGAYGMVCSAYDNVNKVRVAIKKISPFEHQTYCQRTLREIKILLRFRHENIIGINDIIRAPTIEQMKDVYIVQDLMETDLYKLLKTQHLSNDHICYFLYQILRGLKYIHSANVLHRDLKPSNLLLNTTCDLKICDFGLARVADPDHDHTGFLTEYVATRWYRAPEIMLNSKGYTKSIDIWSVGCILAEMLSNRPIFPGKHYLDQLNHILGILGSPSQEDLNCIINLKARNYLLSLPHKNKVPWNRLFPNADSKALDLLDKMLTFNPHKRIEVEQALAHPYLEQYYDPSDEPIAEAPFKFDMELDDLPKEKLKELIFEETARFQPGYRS

[12] = biological target: Tyrosine-protein kinase Fes/Fps (Homo sapiens) (UniProt P07332); assay: FES SGC Tm panel (DSF); conditions: Compound concentration 20.0 uM
Sequence of Tyrosine-protein kinase Fes/Fps (Homo sapiens) (P07332 whole entry, the tested form may be a part): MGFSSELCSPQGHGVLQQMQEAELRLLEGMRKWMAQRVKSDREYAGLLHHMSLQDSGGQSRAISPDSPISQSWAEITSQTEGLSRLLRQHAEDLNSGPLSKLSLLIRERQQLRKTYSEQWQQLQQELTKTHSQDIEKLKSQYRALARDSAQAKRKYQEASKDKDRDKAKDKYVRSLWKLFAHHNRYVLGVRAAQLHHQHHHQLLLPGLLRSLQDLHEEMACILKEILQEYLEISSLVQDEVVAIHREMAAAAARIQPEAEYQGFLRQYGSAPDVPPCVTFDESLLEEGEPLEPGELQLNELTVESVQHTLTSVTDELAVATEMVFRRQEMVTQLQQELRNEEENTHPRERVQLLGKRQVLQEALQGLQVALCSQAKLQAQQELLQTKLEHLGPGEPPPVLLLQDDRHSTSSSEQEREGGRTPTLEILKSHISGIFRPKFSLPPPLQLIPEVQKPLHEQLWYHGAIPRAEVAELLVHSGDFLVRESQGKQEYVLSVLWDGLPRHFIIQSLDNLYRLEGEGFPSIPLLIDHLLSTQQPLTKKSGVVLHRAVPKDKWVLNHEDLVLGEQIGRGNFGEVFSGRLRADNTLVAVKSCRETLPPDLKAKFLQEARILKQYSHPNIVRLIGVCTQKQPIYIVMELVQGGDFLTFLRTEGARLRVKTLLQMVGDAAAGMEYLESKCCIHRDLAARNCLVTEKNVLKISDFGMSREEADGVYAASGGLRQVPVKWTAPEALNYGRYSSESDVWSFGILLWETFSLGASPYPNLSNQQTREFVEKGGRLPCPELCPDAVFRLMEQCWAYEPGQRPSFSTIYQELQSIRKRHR

[13] = biological target: T2, Zinc finger and BTB domain-containing protein 10 (Homo sapiens) (UniProt Q96DT7); conditions: SUD4, Compound concentration 1.0 uM
T2 sequence (whole entry): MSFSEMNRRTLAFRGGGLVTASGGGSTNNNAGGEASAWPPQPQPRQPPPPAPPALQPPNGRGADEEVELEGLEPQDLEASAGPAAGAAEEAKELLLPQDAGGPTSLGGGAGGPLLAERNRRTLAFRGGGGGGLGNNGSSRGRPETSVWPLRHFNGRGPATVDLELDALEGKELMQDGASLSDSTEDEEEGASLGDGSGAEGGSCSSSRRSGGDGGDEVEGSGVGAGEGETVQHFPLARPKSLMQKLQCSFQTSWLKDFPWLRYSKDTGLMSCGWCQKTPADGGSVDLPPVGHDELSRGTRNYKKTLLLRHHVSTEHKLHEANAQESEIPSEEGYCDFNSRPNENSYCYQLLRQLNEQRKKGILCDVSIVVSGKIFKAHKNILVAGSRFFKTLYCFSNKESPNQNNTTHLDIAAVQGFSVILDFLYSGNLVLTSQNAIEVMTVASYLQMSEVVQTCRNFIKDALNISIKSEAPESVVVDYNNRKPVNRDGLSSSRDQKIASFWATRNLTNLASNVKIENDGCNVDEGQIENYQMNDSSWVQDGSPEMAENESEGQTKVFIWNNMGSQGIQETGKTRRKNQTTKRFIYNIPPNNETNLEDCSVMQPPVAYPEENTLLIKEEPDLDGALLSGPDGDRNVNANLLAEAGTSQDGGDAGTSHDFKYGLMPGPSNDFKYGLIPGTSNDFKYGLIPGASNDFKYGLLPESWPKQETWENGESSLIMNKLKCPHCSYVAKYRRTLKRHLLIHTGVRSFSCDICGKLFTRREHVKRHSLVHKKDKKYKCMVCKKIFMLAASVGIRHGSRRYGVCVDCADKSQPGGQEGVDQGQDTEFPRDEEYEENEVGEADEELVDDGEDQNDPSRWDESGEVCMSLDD

[14] = biological target: T3, Telomere zinc finger-associated protein (Homo sapiens) (UniProt P10074); conditions: SUD4, Compound concentration 1.0 uM
T3 sequence (whole entry): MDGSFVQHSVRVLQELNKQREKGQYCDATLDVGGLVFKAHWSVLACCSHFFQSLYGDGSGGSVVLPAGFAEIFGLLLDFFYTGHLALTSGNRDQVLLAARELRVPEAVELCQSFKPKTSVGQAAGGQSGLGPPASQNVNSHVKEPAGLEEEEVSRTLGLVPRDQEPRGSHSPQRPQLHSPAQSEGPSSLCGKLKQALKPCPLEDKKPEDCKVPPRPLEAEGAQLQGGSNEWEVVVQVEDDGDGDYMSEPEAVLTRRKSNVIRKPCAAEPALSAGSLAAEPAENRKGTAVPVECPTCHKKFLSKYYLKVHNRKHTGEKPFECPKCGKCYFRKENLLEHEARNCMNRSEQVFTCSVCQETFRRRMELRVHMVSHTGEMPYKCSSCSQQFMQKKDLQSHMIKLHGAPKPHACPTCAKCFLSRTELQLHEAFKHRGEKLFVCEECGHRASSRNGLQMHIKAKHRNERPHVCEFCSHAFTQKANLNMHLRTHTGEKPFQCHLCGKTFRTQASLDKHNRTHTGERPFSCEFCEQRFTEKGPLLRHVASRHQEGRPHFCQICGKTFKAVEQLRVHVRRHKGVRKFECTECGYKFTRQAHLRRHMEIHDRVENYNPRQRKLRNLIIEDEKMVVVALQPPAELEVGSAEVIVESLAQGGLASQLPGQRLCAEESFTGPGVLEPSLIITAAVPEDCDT

[15] = biological target: B-cell lymphoma 6 protein (Homo sapiens, UniProt P41182); conditions: OCI-Ly1, Compound concentration 1.0 uM
[16] = biological target: Calcium/calmodulin-dependent protein kinase type II subunit delta (Homo sapiens) (UniProt Q13557); assay: CAMK2D SGC Tm panel (DSF); conditions: Compound concentration 20.0 uM
Sequence of Calcium/calmodulin-dependent protein kinase type II subunit delta (Homo sapiens) (Q13557 whole entry): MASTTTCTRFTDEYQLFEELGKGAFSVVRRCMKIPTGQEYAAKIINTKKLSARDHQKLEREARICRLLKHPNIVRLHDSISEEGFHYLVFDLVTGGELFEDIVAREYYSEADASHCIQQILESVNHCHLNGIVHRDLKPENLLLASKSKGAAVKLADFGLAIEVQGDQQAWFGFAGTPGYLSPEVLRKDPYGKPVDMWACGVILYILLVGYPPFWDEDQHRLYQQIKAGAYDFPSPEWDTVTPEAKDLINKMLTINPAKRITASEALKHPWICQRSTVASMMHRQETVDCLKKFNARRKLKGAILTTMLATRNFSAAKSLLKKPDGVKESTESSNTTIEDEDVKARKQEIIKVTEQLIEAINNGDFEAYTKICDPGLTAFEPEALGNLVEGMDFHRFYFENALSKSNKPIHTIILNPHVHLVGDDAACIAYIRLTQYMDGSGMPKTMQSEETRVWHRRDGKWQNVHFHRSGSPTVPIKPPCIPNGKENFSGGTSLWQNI

LogFC [1]: 0.423
Tm [2]: 39 °C
inhibition [3]: 0.77%
inhibition [4]: 3.38%
LogFC [5]: -0.0472
LogFC [6]: 0.104
inhibition [7]: 14%
Tm [9]: 50 °C
Tm [10]: 37 °C
Tm [11]: 56 °C
Tm [12]: 44 °C
LogFC [13]: 0.0283
LogFC [14]: -0.0152
LogFC [15]: -2.79
Tm [16]: 47 °C
Structure (SMILES): C[C@@H]1CN(c2ncc(Cl)c(Nc3ccc4c(c3)n(CCC(C)(C)O)c(=O)n4C)n2)C[C@H](C)C1(F)F
Tm [8]: 39 °C
